Usually IC50 stands for the concentration that inhibits the measured activity by half.

We go through 2 molecules from patent US20210261569A1, “FUSED HETEROCYCLIC DERIVATIVES HAVING SELECTIVE BACE1 INHIBITORY ACTIVITY” (Shionogi & Co., Ltd., priority 2018, published 2021).

The target in series [1] is T1, recombinant BACE1 protein (Homo sapiens, UniProt P56817).
T1 construct: recombinant BACE1 protein in a final concentration of 0.04 μg/mL
As to the kind of experiment: BACE1 biochemical FRET based assay. To be noted: for Selectivity: BACE2 IC50 relative to BACE1 IC50; for IC50: FRET, pH 5.0, 450 min at room temperature. From the text:
This assay is a Fluorescence Resonance Energy Transfer Assay (FRET) based assay. The substrate for this assay is an APP derived 13 amino acids peptide that contains the ‘Swedish’ Lys-Met/Asn-Leu mutation of the amyloid precursor protein (APP) beta-site secretase cleavage site. This substrate also contains two fluorophores: (7-methoxycoumarin-4-yl) acetic acid (Mca) is a fluorescent donor with excitation wavelength at 320 nm and emission at 405 nm and 2,4-dinitrophenol (Dnp) is a proprietary quencher acceptor. […] Upon cleavage by BACE1, the fluorophore Mca is separated from the quenching group Dnp, restoring the full fluorescence yield of the donor. The increase in fluorescence is linearly related to the rate of proteolysis.
Briefly in a 384-well format recombinant BACE1 protein in a final concentration of 0.04 μg/mL was incubated for 450 minutes at room temperature with 10 μm substrate in incubation buffer (final concentrations: 33.3 mM Citrate buffer pH 5.0, 0.033% PEG, 3% DMSO) in the absence or presence of compound. Next the amount of proteolysis was directly measured by fluorescence measurement at T=0′-120′ and T=450′ (excitation at 320 nm and emission at 405 nm). Results were expressed in RFU (Relative Fluorescence Units), as difference between T450 and Tx (Tx is chosen depending on the reaction speed between 0 and 120 minutes).
A best-fit curve was fitted by a minimum sum of squares method to the plot of % Controlmin versus compound concentration. From this an IC50 value (inhibitory concentration causing 50% inhibition of activity) can be obtained.

Series [2] has as its system Abeta 1-42 in cerebrospinal fluid (CSF). Briefly: Pharmacology in the beagle dog: beta-amyloid profile in cerebrospinal fluid. As to conditions: single dose 0.63 mg/kg. It is filed as in vivo. The method, then: Test compounds were tested to evaluate the effect on the beta-amyloid profile in cerebrospinal fluid (CSF) of dogs after a single dose, in combination with pharmacokinetic (PK) follow up and limited safety evaluation.
In the case of compounds shown below, two or 4 beagle dogs (1 or 2 male, 1 or 2 female) were dosed with vehicle (1 mL/kg of an aqueous solution of 20% cyclodextrin) and 4 beagle dogs (2 males and 2 females) per dose group were dosed with test compound at the doses indicated in the following Table in an aqueous 20% cyclodextrin solution with a concentration in mg/mL identical to the dose given in mg/kg) on an empty stomach.
CSF was taken in conscious animals directly from the lateral ventricle via a cannula which was screwed in the skull and covered with subcutaneous tissue and skin, before and at 4, 8, 25 and 49 hours after dosing. Eight hours after dosing the animals got access to their regular meal for 30 minutes. Blood was taken for PK follow up (0.5, 1, 2, 4, 8, 25 and 49 hours) and serum samples for biochemistry were taken before and at 8 and 25 h after dosing. The CSF samples were used for measurement of Abeta 1-37, Abeta 1-38, Abeta 1-40 and Abeta 1-42.

Series [3] can be described thus: Metabolic stability test. The format is in vitro ADME. To be noted: human liver microsomes 0.5 mg protein/mL, NADPH, 37° C. Here is the method: Using a commercially available pooled human liver microsomes, a compound of the present invention was reacted for a constant time, a remaining rate was calculated by comparing a reacted sample and an unreacted sample, thereby, a degree of metabolism in liver was assessed.
A reaction was performed (oxidative reaction) at 37° C. for 0 minute or 30 minutes in the presence of 1 mmol/L NADPH in 0.2 mL of a buffer (50 mmol/L Tris-HCl pH 7.4, 150 mmol/L potassium chloride, 10 mmol/L magnesium chloride) containing 0.5 mg protein/mL of human liver microsomes. After the reaction, 50 μL of the reaction solution was added to 100 μL of a methanol/acetonitrile=1/1 (v/v), mixed and centrifuged at 3000 rpm for 15 minutes. The compound of the present invention in the supernatant was quantified by LC/MS/MS or solid phase extraction (SPE)/MS, and a remaining amount of the compound of the present invention after the reaction was calculated, letting a compound amount at 0 minute reaction time to be 100%.
(Microsomes from liver hold many membrane-bound enzymes, among them those of drug oxidation.)

T1 sequence (P56817 46-501): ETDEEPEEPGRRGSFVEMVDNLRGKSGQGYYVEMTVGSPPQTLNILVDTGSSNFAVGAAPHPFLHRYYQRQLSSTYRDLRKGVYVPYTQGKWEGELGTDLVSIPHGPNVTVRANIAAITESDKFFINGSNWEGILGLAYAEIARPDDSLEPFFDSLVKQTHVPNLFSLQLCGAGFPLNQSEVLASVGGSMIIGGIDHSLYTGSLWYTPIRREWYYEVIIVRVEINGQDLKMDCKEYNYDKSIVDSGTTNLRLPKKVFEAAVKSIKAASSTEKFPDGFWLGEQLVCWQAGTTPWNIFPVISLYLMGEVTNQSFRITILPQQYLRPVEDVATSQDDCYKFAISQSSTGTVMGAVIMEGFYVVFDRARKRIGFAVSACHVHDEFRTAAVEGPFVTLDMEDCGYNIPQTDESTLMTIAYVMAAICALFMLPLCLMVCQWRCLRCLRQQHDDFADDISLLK

As for `C[C@@H]1OC[C@H]2[C@@H]1OC(N)=N[C@]2(CF)c1cc(NC(=O)c2cnc(OCF)cn2)ccc1F` [Compound I-082], in series [1], the Selectivity worked out at 28 and the concentration for half-maximal inhibition (IC50) is 11 nM. In series [2] (8 h), the “% change in Abeta 1-42 from own baseline” value was −58%. For the same molecule, in series [2] (24 h or 25 h), the “% change in Abeta 1-42 from own baseline” value is on record as −41%. Moreover, the “Remaining rate (%) at 30 min” value in series [3] amounted to 92%.

`NC1=N[C@](CF)(c2cc(NC(=O)c3cnc(OCF)cn3)ccc2F)[C@H]2[C@H](CC(F)F)OC[C@H]2O1` [Compound I-116]: in series [1], the Selectivity was 31 and the half-inhibitory concentration (IC50) turned out to be 13 nM. Moreover, the “Remaining rate (%) at 30 min” value in series [3] is reported as 92%.
